From patent US11918645B2, “Vaccines against hepatitis B virus” (priority 2012, dated 2024)
Entries after “also recorded” stand apart in the source; their conditions may differ.

Experiments:
[1] = target: T1, HLA-DR13 (α1*01:01;β1*13:01) (Homo sapiens, UniProt P01903+P01911, A100E/A169T/K41T/L162R/M171V/P40S/Q125H/Q178H/Q39Y/Q99D/R42S/S66N/W38E/Y61H); assay: ProImmune REVEAL MHC class II binding assay of long peptides; details: percentage of the signal of the positive control peptide; positive binding score >=15%
T1 construct: purchased ProImmune
From the text: (§1) The highly frequent HLA class II alleles HLA-DR1 (α1*01:01;β1*01:01), HLA-DR15 (α1*01:01;β1*15:01), HLA-DR3 (α1*01:01;β1*03:01), HLA-DR4 (α1*01:01;β1*04:01), HLA-DR11 (α1*01:01;β1*11:01), HLA-DR13 (α1*01:01;β1*13:01), and HLA-DR7 (α1*01:01;β1*07:01) were selected. Each peptide was given a score relative to the positive control peptide, which is a known T-cell epitope.

[2] = test system: HLA-DR11 (α1*01:01;β1*11:01); assay: as above; design: species or system human; details: percentage of the signal of the positive control peptide; positive binding score >=15%
From the text: as §1

HLA class II alleles = assay: ProImmune REVEAL MHC class II binding assay, summary over the seven alleles; design: species or system human; details: number of class II alleles for which positive binding (score >=15%) was detected
From the text: The highly frequent HLA class II alleles HLA-DR1 (α1*01:01;β1*01:01), HLA-DR15 (α1*01:01;β1*15:01), HLA-DR3 (α1*01:01;β1*03:01), HLA-DR4 (α1*01:01;β1*04:01), HLA-DR11 (α1*01:01;β1*11:01), HLA-DR13 (α1*01:01;β1*13:01), and HLA-DR7 (α1*01:01;β1*07:01) were selected. Each peptide was given a score relative to the positive control peptide, which is a known T-cell epitope. The score of the test peptide is reported quantitatively as a percentage of the signal generated by the positive control peptide, and the peptide is indicated as having a putative pass or fail result. Good binders are considered to be those peptides with scores >=15% of the positive control as defined by Proimmune.

[3] = test system: PBMC from chronic HBV-infected subjects; assay: IFNγ ELISpot of PBMC restimulated with individual unconjugated HBV long peptides (Example 5); format: cell-based, human; details: for T cell responses (IFNγ ELISpot), level and frequency of responders: HBeAg-negative inactive carriers and HBeAg-negative treated subjects, 5 μg/mL, 18 h, FIGS. 9 and 10; for T cell responses (IFNγ ELISpot) grouped by infecting HBV genotype: genotypes A, B, C & D, FIG. 11; for T cell responses (IFNγ ELISpot) grouped by ethnic background: three ethnic groups, FIG. 12
Procedure: One vial of PBMC from each subject (containing 1×10^7 cells) was thawed and lymphocyte numbers were determined using a Scepter™ automated handheld cell counter. PBMC were cultured in 2 mL culture medium (CM: RPMI-1640 Glutamax supplemented with 5% human AB serum) in 24 well cell culture plates at a concentration of 1×10^6 cells/mL for a total of 11 days. Cells were stimulated with a mixture of the nine HBV-derived long peptides described in Example 3.
Each peptide was used at a final concentration of 1 μg/peptide/mL. On Day 4, IL-2 and IL-15 were added to the cultures to final concentrations of 10 IU/mL and 10 ng/mL respectively. On Day 10, cells were washed twice in CM and cultured with 10 IU/mL IL-2 for 1 additional day. On Day 11, cells were washed twice in CM, counted and incorporated in a human IFNγ (interferon-gamma) ELISpot assay or intracellular cytokine staining.
Cells from short term cultures were plated in triplicate wells at 5×10^4 PBMC/well. Final antigen concentrations used were: 5 μg/mL for each individual peptides; PHA positive control: 1 μg/mL.

[4] = test system: HLA-DP4 (α1*01:03;β1*04:01); assay: ProImmune REVEAL MHC class II binding assay of long peptides; design: species or system human; details: percentage of the signal of the positive control peptide; positive binding score >=15%
BALB/c mice = assay: Immunogenicity in mice, IFNγ ELISpot of splenocytes, FP02.1 vs NP02.1 (Example 6); format: in vivo; details: mice immunised with FP02.1 or NP02.1, restimulation 5 μg/mL/peptide, FIG. 15
Procedure: The immunogenicity in mice of FP02.1 (containing nine fluorocarbon-conjugated peptides) was compared to NP02.1 (containing nine equivalent unconjugated peptides).
Alternatively, splenocytes were stimulated in vitro with 5 μg/mL/peptide of nine individual peptides for 18 hours in an ELISpot assay. The number of IFNγ+ spot forming cells (SFC) was counted. Plates then were washed with PBS, incubated with an IFNγ detection peroxidase-labelled antibody, followed by a substrate, according to the manufacturer's instructions.

T1 sequence (P01903 26-216, other chains not shown): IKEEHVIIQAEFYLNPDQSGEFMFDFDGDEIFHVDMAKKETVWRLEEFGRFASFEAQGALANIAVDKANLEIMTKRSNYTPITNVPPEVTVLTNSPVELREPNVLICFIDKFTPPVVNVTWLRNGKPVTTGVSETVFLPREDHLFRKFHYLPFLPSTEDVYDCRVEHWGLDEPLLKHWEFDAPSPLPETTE

NP753(K): unconjugated HBV long peptide, core KK + 738-770 (S to T at 743) + KKK (KKKEFGATVELLSFLPSDFFPSVRDLLDTASALYRKKK; HBV CONSENSUS SEQUENCE)
binding score, HLA-DR13 (α1*01:01;β1*13:01) [1]: 0.00%
binding score, HLA-DR11 (α1*01:01;β1*11:01) [2]: 1.51%
Number of allele (a) (HLA class II alleles): 0
T cell responses (IFNγ ELISpot), level and frequency of responders [3]: highest level of responses in both patient populations and in the highest proportion of subjects
T cell responses (IFNγ ELISpot) grouped by infecting HBV genotype [3]: highest responses across all four genotypes A, B, C & D
T cell responses (IFNγ ELISpot) grouped by ethnic background [3]: highest responses across all three ethnic groups
binding score, HLA-DP4 (α1*01:03;β1*04:01) [4]: 0.65%

NP113: unconjugated HBV long peptide, polymerase region 96-130 of virtual HBV proteome (VGPLTVNEKRRLKLIMPARFYPNVTKYLPLDKGIK; HBV CONSENSUS SEQUENCE)
binding score, HLA-DR13 (α1*01:01;β1*13:01) [1]: 0.00%
T cell responses (IFNγ ELISpot), level and frequency of responders [3]: highest level of responses in both patient populations and in the highest proportion of subjects
T cell responses (IFNγ ELISpot) grouped by infecting HBV genotype [3]: highest responses across all four genotypes A, B, C & D; also recorded: highest T cell response across all four genotypes compared to all other peptides
T cell responses (IFNγ ELISpot) grouped by ethnic background [3]: highest responses across all three ethnic groups
IFNγ response of splenocytes to each individual peptide component (BALB/c mice): immune responses were dominated by four out of the 9 peptides contained in the vaccine
IFNγ response of splenocytes to each individual peptide component (BALB/c mice; listed as P113): only observed with the formulation containing the fluorocarbon-conjugated peptides
binding score, HLA-DP4 (α1*01:03;β1*04:01) [4]: 33.51%

NP151: unconjugated HBV long peptide, polymerase region 134-168 (PEHVVNHYFQTRHYLHTLWKAGILYKRETTRSASF; HBV CONSENSUS SEQUENCE)
binding score, HLA-DR13 (α1*01:01;β1*13:01) [1]: 0.00%
T cell responses (IFNγ ELISpot), level and frequency of responders [3]: highest level of responses in both patient populations and in the highest proportion of subjects
T cell responses (IFNγ ELISpot) grouped by infecting HBV genotype [3]: highest responses across all four genotypes A, B, C & D
T cell responses (IFNγ ELISpot) grouped by ethnic background [3]: highest responses across all three ethnic groups
IFNγ response of splenocytes to each individual peptide component (BALB/c mice): immune responses were dominated by four out of the 9 peptides contained in the vaccine
binding score, HLA-DP4 (α1*01:03;β1*04:01) [4]: 74.36%
